Converted amounts (≈) assume the structure as drawn.
Experiments:
[1] = test system: C. pylori NCTC 11916; assay: MIC, agar-plate dilution method, test strain A; format: cell-based; settings: Helicobacter pylori, NCTC11916, 72 h, Brucella agar, 37° C., 3 days
Procedure: (§1) The minimum inhibitory concentration (MIC) of each compound was determined by the agar-plate dilution method based on the standard method advocated by Japan Society of Chemotherapy [cf: Chemotherapy, Jan. '81, p. 76]. The volume of agar medium per plate was 20 ml. Each of the test compounds was dissolved in dimethylsulfoxide at a concentration of 80 mg/ml or 40 mg/ml, and diluted 10 times with sterile distilled water. Furthermore, the aqueous solution of 8 mg/ml or 4 mg/ml was diluted serially 2-fold with sterile distilled water. To 2 ml of the diluted solution was added 18 ml of Brucella agar (BBL Microbiology Systems, Becton Dickinson and Co., Cockeysville, Md. 21030) containing 7% defibrinated horse blood (manufactured by Nippon Bio-supp. Center) and mixed well. Test strains frozen at -80° C. in Brucella broth (BBL) containing 10% horse serum were thawed and inoculated on a Brucella agar slant medium containing 7% defibrinated horse blood. The medium was incubated anaerobically at 37° C. for 3 days in a jar containing a piece of sponge sufficiently impregnated with water and Campy Pak™ (BBL). The organisms grown on the slant medium were collected and suspended in a Brucella broth to correspond to the turbidity of about 10^8 CFU/ml of common bacteria. One platinum loop of inoculum was streaked on the medium plates for determination. The plates were incubated under the same conditions as described above.

[2] = test system: C. pylori NCTC 11637; assay: MIC, agar-plate dilution method, test strain B; format: cell-based; settings: Helicobacter pylori, NCTC11637, 72 h, Brucella agar, 37° C., 3 days
Procedure: as §1

[3] = test system: C. pylori PCL 56; assay: MIC, agar-plate dilution method, test strain C; format: cell-based; settings: Helicobacter pylori, PCL56, 72 h, Brucella agar, 37° C., 3 days
Procedure: as §1, with “above. […] The results are shown in Table 2 and Table 3. | C: C. pylori PCL 56” for “above.”

[4] = test system: C. pylori CPY 00111; assay: MIC, agar-plate dilution method, test strain D; format: cell-based; settings: Helicobacter pylori, CPY00111, 72 h, Brucella agar, 37° C., 3 days
Procedure: as §1

[5] = test system: C. pylori KS 13; assay: MIC, agar-plate dilution method, test strain E; format: cell-based; settings: Helicobacter pylori, KS13, 72 h, Brucella agar, 37° C., 3 days
Procedure: as §1

[6] = test system: C. pylori CLO 1; assay: MIC, agar-plate dilution method, test strain F; format: cell-based; settings: Helicobacter pylori, CLO1, 72 h, Brucella agar, 37° C., 3 days
Procedure: as §1

[7] = test system: C. pylori CLO 6; assay: MIC, agar-plate dilution method, test strain G; format: cell-based; settings: Helicobacter pylori, CLO6, 72 h, Brucella agar, 37° C., 3 days
Procedure: as §1

[8] = test system: genus Campylobacter; assay: Antibacterial activity against the genus Campylobacter (Tables 2 and 3, summary in words); format: cell-based, Campylobacter pylori; settings: fluorinated alkyl derivatives vs other derivatives, Table 2 and Table 3
Procedure: as §1

With CC(C)COc1ccnc(CSc2nc3ccccc3[nH]2)c1 [Compound 7] the MIC [1] was 12.5 µg/mL (≈ 39.9 µM), the MIC [2] was 12.5 µg/mL (≈ 39.9 µM) and the MIC [3] was 12.5 µg/mL (≈ 39.9 µM). It also gave an MIC [4] of 12.5 µg/mL (≈ 39.9 µM), an MIC [5] of 12.5 µg/mL (≈ 39.9 µM) and an MIC [6] of 12.5 µg/mL (≈ 39.9 µM). It also gave an MIC [7] of 12.5 µg/mL (≈ 39.9 µM).
Work on Cc1c(OCC(F)(F)C(F)(F)F)ccnc1C[S+]([O-])c1nc2ccccc2[nH]1 (stereo not shown) [Compound 3] yielded an MIC [1] of 3.13 µg/mL (≈ 7.46 µM), an MIC [2] of 6.25 µg/mL (≈ 14.9 µM) and an MIC [3] of 3.13 µg/mL (≈ 7.46 µM). It also gave an MIC [4] of 3.13 µg/mL (≈ 7.46 µM), an MIC [5] of 3.13 µg/mL (≈ 7.46 µM) and an MIC [6] of 1.56 µg/mL (≈ 3.72 µM). For the same compound, the MIC [7] was 6.25 µg/mL (≈ 14.9 µM) and the “antibacterial activity compared with other derivatives” value [8] was “stronger antibacterial activity”.
Work on Cc1c(OCC(F)(F)C(F)F)ccnc1CSc1nc2ccccc2[nH]1 [Compound 12] yielded an MIC [1] of 1.56 µg/mL (≈ 4.05 µM), an MIC [2] of 0.78 µg/mL (≈ 2.02 µM) and an MIC [3] of 1.56 µg/mL (≈ 4.05 µM). It also gave an MIC [4] of 1.56 µg/mL (≈ 4.05 µM), an MIC [5] of 1.56 µg/mL (≈ 4.05 µM) and an MIC [6] of 1.56 µg/mL (≈ 4.05 µM). For the same compound, the MIC [7] was 0.78 µg/mL (≈ 2.02 µM) and the “antibacterial activity compared with other derivatives” value [8] was “stronger antibacterial activity”.
In the case of CC(C)Oc1ccnc(CSc2nc3cc(C(F)(F)F)ccc3[nH]2)c1 [Compound 9], the MIC [1] is reported as 12.5 µg/mL (≈ 34 µM), the MIC [2] is reported as 12.5 µg/mL (≈ 34 µM) and the MIC [3] is reported as 12.5 µg/mL (≈ 34 µM). It also gave an MIC [4] of 12.5 µg/mL (≈ 34 µM), an MIC [5] of 12.5 µg/mL (≈ 34 µM) and an MIC [6] of 12.5 µg/mL (≈ 34 µM). It also gave an MIC [7] of 12.5 µg/mL (≈ 34 µM).
Compound Cc1c(OCC(F)(F)C(F)F)ccnc1C[S+]([O-])c1nc2ccccc2[nH]1 (stereo not shown) [Compound 4] has an MIC [1] of 1.56 µg/mL (≈ 3.89 µM), an MIC [2] of 6.25 µg/mL (≈ 15.6 µM) and an MIC [3] of 6.25 µg/mL (≈ 15.6 µM). For the same compound, the MIC [4] was 1.56 µg/mL (≈ 3.89 µM), the MIC [5] was 1.56 µg/mL (≈ 3.89 µM) and the MIC [6] was 0.78 µg/mL (≈ 1.94 µM). The MIC [7] was 6.25 µg/mL (≈ 15.6 µM) and the “antibacterial activity compared with other derivatives” value [8] was “stronger antibacterial activity”.
Compound Cc1c(OCC(F)(F)C(F)(F)F)ccnc1CSc1nc2ccccc2[nH]1 [Compound 13] has an MIC [1] of 1.56 µg/mL (≈ 3.87 µM), an MIC [2] of 1.56 µg/mL (≈ 3.87 µM) and an MIC [3] of 1.56 µg/mL (≈ 3.87 µM). For the same compound, the MIC [4] was 1.56 µg/mL (≈ 3.87 µM), the MIC [5] was 1.56 µg/mL (≈ 3.87 µM) and the MIC [6] was 1.56 µg/mL (≈ 3.87 µM). The MIC [7] was 1.56 µg/mL (≈ 3.87 µM) and the “antibacterial activity compared with other derivatives” value [8] was “stronger antibacterial activity”.
For C=CCOc1ccnc(CSc2nc3cc(C(F)(F)F)ccc3[nH]2)c1 [Compound 10], the MIC [1] was 25 µg/mL (≈ 68.4 µM), the MIC [2] was 25 µg/mL (≈ 68.4 µM) and the MIC [3] was 25 µg/mL (≈ 68.4 µM). For the same compound, the MIC [4] was 25 µg/mL (≈ 68.4 µM), the MIC [5] was 25 µg/mL (≈ 68.4 µM) and the MIC [6] was 25 µg/mL (≈ 68.4 µM). It also gave an MIC [7] of 25 µg/mL (≈ 68.4 µM).
CC(C)COc1ccnc(CSc2nc3cc(C(F)(F)F)ccc3[nH]2)c1 [Compound 8] gave an MIC [1] of 12.5 µg/mL (≈ 32.8 µM), an MIC [2] of 12.5 µg/mL (≈ 32.8 µM) and an MIC [3] of 12.5 µg/mL (≈ 32.8 µM). It also gave an MIC [4] of 12.5 µg/mL (≈ 32.8 µM), an MIC [5] of 12.5 µg/mL (≈ 32.8 µM) and an MIC [6] of 12.5 µg/mL (≈ 32.8 µM). The MIC [7] was 12.5 µg/mL (≈ 32.8 µM).
Compound C#CCOc1ccnc(CSc2nc3cc(C(F)(F)F)ccc3[nH]2)c1 [Compound 11] has an MIC [1] of 12.5 µg/mL (≈ 34.4 µM), an MIC [2] of 12.5 µg/mL (≈ 34.4 µM) and an MIC [3] of 12.5 µg/mL (≈ 34.4 µM). For the same compound, the MIC [4] was 12.5 µg/mL (≈ 34.4 µM), the MIC [5] was 12.5 µg/mL (≈ 34.4 µM) and the MIC [6] was 12.5 µg/mL (≈ 34.4 µM). It also gave an MIC [7] of 12.5 µg/mL (≈ 34.4 µM).

— US5013743A, “Selective antibacterial agent against campytobacter” (Takeda Chemical Industries, Ltd., priority 1989, dated 1991)
